# Data reported in patent US12234499B2, “Compositions, methods, systems and/or kits for detecting antimicrobial resistance in bacteria” (priority 2016, dated 2025).
# Like-named read-outs stand apart in the source and are kept apart here.
# Legend:
# Type in all cases: cell-based
# [1] = system: Bacteria expressing Class C β-lactamases; assay: Growth test with CLOX (FIG. 31)
# Experimental: (§1) Non-limiting embodiments of detection tests for enteric and non-fermenting bacteria, with various concentration ranges of one or more antibiotics, and various concentration ranges for one or more inhibitors are shown in FIG. 1-FIG. 24 and FIG. 31. These figures illustrate the concentration of the antibiotic being tested (in μg/ml) along the x-axis (not every concentration is tested in every figure), and the amount of growth of bacteria in the sample in the y-axis. The boxes illustrate the median, interquartile range, non-outlier minimum and maximum; with asterisks representing single outliers. Each figure has a panel for Class A, Class B, and Class D producing bacteria, as well as a panel for non-carbapenemase producing bacteria (NEG). In some embodiments, the detection tests described herein are not performed by imaging a change in cell morphology.
# (§2) In some embodiments, the detection tests can comprise a plurality of wells comprising enteric bacteria, CLOX at 0.1 mg/ml, and MEM over a range of concentrations of about 0.0156 μg/ml to about 64 μg/ml (FIG. 31).
# [2] = system: bacteria expressing Classes A, B or D; assay: Growth test with CLOX (FIG. 31); settings: CLOX at a concentration of about 100 μg/ml
# Experimental: as §1, §2
# [3] = system: K. pneumoniae 0113; assay: Carbapenem MIC of study isolate; settings: Klebsiella pneumoniae, KPC-3
# [4] = system: K. oxytoca 0147; assay: Carbapenem MIC of study isolate; settings: KPC
# [5] = system: E. aerogenes G1614; assay: Carbapenem MIC of study isolate; settings: Klebsiella aerogenes, High AmpC
# [6] = system: P. mirabilis 0156; assay: Carbapenem MIC of study isolate; settings: Proteus mirabilis, KPC
# [7] = system: E. cloacae G1693; assay: Carbapenem MIC of study isolate; settings: Enterobacter cloacae, IMP-8 (Table 4.1)
# [8] = system: K. pneumoniae G1685; assay: Carbapenem MIC of study isolate; settings: Klebsiella pneumoniae, CMY-2-like
# [9] = system: P. mirabilis 0155; assay: Carbapenem MIC of study isolate; settings: Proteus mirabilis, KPC
# [10] = system: K. pneumoniae G1511; assay: Carbapenem MIC of study isolate
# [11] = system: K. pneumoniae G158; assay: Carbapenem MIC of study isolate; settings: Klebsiella pneumoniae, KPC-8
# [12] = system: S. marcescens G153; assay: Carbapenem MIC of study isolate; settings: Serratia marcescens, KPC
# [13] = system: E. cloacae 0032; assay: Carbapenem MIC of study isolate; settings: Enterobacter cloacae, KPC-3, TEM-1
# [14] = system: K. pneumoniae 0079; assay: Carbapenem MIC of study isolate; settings: Klebsiella pneumoniae, CTX-M-14, OmpK35 (Table 4.2 also DHA-1)
# [15] = system: K. pneumoniae G1675; assay: Carbapenem MIC of study isolate; settings: Klebsiella pneumoniae, KPC-2, SHV-5-like
# [16] = system: P. mirabilis G1745; assay: Carbapenem MIC of study isolate; settings: Proteus mirabilis, CMY, TEM-1-like
# [17] = system: P. aeruginosa G15; assay: Carbapenem MIC of study isolate; settings: Pseudomonas aeruginosa, KPC-5
# [18] = system: K. pneumoniae G1725; assay: Carbapenem MIC of study isolate; settings: Klebsiella pneumoniae, KPC
# [19] = system: E. coli 0137; assay: Carbapenem MIC of study isolate; settings: Escherichia coli, NDM-6
# [20] = system: E. cloacae G1735; assay: Carbapenem MIC of study isolate; settings: Enterobacter cloacae
# [21] = system: K. pneumoniae 0043; assay: Carbapenem MIC of study isolate; settings: Klebsiella pneumoniae, SHV-12, OmpK36
# [22] = system: K. pneumoniae G157; assay: Carbapenem MIC of study isolate; settings: Klebsiella pneumoniae, KPC-8
# [23] = system: P. aeruginosa G15557; assay: Carbapenem MIC of study isolate; settings: VIM-like
# [24] = system: K. pneumoniae 0044; assay: Carbapenem MIC of study isolate; settings: Klebsiella pneumoniae, CTX-M-15, TEM-1, SHV-1
# [25] = system: A. baumannii 0052; assay: Carbapenem MIC of study isolate; settings: Acinetobacter baumannii, OXA-58
# [26] = system: E. coli G164; assay: Carbapenem MIC of study isolate; settings: Escherichia coli, High AmpC (Table 2), SHV-12-like (Table 4.2)
# [27] = system: K. pneumoniae 0042; assay: Carbapenem MIC of study isolate; settings: Klebsiella pneumoniae, CTX-M-28, OmpK35, OmpK36
# [28] = system: K. ozaenae 0096; assay: Carbapenem MIC of study isolate; settings: KPC
# [29] = system: E. coli G1693; assay: Carbapenem MIC of study isolate; settings: Escherichia coli, High AmpC, S12like (Table 2), High AmpC (Table 4.2)
# [30] = system: E. cloacae G1691; assay: Carbapenem MIC of study isolate; settings: Enterobacter cloacae; IMP-8-producing E. cloacae G1691
# [31] = system: M. morganii G1751; assay: Carbapenem MIC of study isolate; settings: Morganella morganii, High AmpC
# [32] = system: E. coli 0086; assay: Carbapenem MIC of study isolate; settings: Escherichia coli, CTX-M-9
# [33] = system: K. pneumoniae 0109; assay: Carbapenem MIC of study isolate; settings: Klebsiella pneumoniae, CTX-M-15, TEM-1, SHV-1
# [34] = system: C. freundii G1706; assay: Carbapenem MIC of study isolate; settings: Citrobacter freundii, KPC
# [35] = system: E. cloacae G1637; assay: Carbapenem MIC of study isolate; settings: Enterobacter cloacae, High AmpC
# [36] = system: K. pneumoniae 0047; assay: Carbapenem MIC of study isolate; settings: Klebsiella pneumoniae, OmpK35
# [37] = system: E. aerogenes G1648; assay: Carbapenem MIC of study isolate; settings: Klebsiella aerogenes, High AmpC
# [38] = system: P. aeruginosa G15019; assay: Carbapenem MIC of study isolate
# [39] = system: E. coli 0058; assay: Carbapenem MIC of study isolate; settings: Escherichia coli, ESBL
# [40] = system: K. oxytoca G1640; assay: Carbapenem MIC of study isolate; settings: Klebsiella oxytoca, KPC
# [41] = system: P. mirabilis G15185; assay: Carbapenem MIC of study isolate
# [42] = system: K. pneumoniae G1758; assay: Carbapenem MIC of study isolate; settings: Klebsiella pneumoniae, CLSI MHT negative control
# [43] = system: A. baumannii G1734; assay: Carbapenem MIC of study isolate; settings: Acinetobacter baumannii, OXA-40
# [44] = system: E. coli 0119; assay: Carbapenem MIC of study isolate; settings: Escherichia coli, NDM
# [45] = system: Bacteria expressing Ambler Class B carbapenemases; assay: Growth tests with chelating agents added to antibiotic
# Experimental: as §1
# [46] = Klebsiella oxytoca, read-out: MIC
# [47] = Klebsiella pneumoniae, KPC-4, read-out: MIC
# [48] = Pseudomonas aeruginosa, read-out: MIC
# [49] = Pseudomonas aeruginosa, VIM-2, read-out: MIC
# [50] = Proteus mirabilis, IMP-27, read-out: MIC
smiles,measurement,setting,value
"Cc1onc(-c2ccccc2Cl)c1C(=O)N[C@@H]1C(=O)N2[C@@H]1SC(C)(C)[C@@H]2C(=O)O [CLOX, cloxacillin]",concentration at which bacteria are sensitive,[1],about 100 μg/ml
same,sensitivity to CLOX,[2],typically not
C[C@@H](O)[C@H]1C(=O)N2C(C(=O)O)=C(S[C@@H]3CN[C@H](C(=O)Nc4cccc(C(=O)O)c4)C3)[C@H](C)[C@H]12 [Ertapenem],MIC,[3],> 1 µg/mL
same,MIC,[4]; listed as ERT,>1 µg/mL
same,MIC,[4]; [46],> 1 µg/mL
same,MIC,[5],> 1 µg/mL
same,MIC,[6],0.5 µg/mL
same,MIC,[7],0.5 µg/mL
same,MIC,[8],> 1 µg/mL
same,MIC,[9],> 1 µg/mL
same,MIC,"[10]; KPC-4, listed as ERT",>1 µg/mL
same,MIC,[10]; [47],> 1 µg/mL
same,MIC,[11],> 1 µg/mL
same,MIC,[12],> 1 µg/mL
same,MIC,[13],> 1 µg/mL
same,MIC,[14],> 1 µg/mL
same,MIC,[15],> 1 µg/mL
same,MIC,[16],≤ 0.25 µg/mL
same,MIC,[17],> 1 µg/mL
same,MIC,[18],> 1 µg/mL
same,MIC,[19],> 1 µg/mL
same,MIC,[20],> 1 µg/mL
same,MIC,[21],> 1 µg/mL
same,MIC,[22],> 1 µg/mL
same,MIC,[23]; [48],> 1 µg/mL
same,MIC,[23]; listed as ERT,>1 µg/mL
same,MIC,[24],> 1 µg/mL
same,MIC,[25],> 1 µg/mL
same,MIC,[26],> 1 µg/mL
same,MIC,[27],> 1 µg/mL
same,MIC,[28],> 1 µg/mL
same,MIC,[29],> 1 µg/mL
same,MIC,[30],> 1 µg/mL
same,MIC,[31],> 1 µg/mL
same,MIC,[32],> 1 µg/mL
same,MIC,[33],> 1 µg/mL
same,MIC,[34],1 µg/mL
same,MIC,[35],> 1 µg/mL
same,MIC,[36],> 1 µg/mL
same,MIC,[37],> 1 µg/mL
same,MIC,[38]; [49],> 1 µg/mL
same,MIC,"[38]; VIM-2, listed as ERT",>1 µg/mL
same,MIC,[39],> 1 µg/mL
same,MIC,[40],> 1 µg/mL
same,MIC,"[41]; IMP-27, listed as ERT",>1 µg/mL
same,MIC,[41]; [50],> 1 µg/mL
same,MIC,[42],> 1 µg/mL
same,MIC,[43],> 1 µg/mL
same,MIC,[44],> 1 µg/mL
C[C@@H](O)[C@H]1C(=O)N2C(C(=O)O)=C(SCCN=CN)C[C@H]12 [Imipenem],MIC,[3],> 8 µg/mL
same,MIC,[4]; listed as IPM,>8 µg/mL
same,MIC,[4]; [46],> 8 µg/mL
same,MIC,[5],> 8 µg/mL
same,MIC,[6],8 µg/mL
same,MIC,[7],4 µg/mL
same,MIC,[8],> 8 µg/mL
same,MIC,[9],> 8 µg/mL
same,MIC,[10]; [47],4 µg/mL
same,MIC,[11],> 8 µg/mL
same,MIC,[12],> 8 µg/mL
same,MIC,[13],4 µg/mL
same,MIC,[14],> 8 µg/mL
same,MIC,[15],> 8 µg/mL
same,MIC,[16],8 µg/mL
same,MIC,[17],> 8 µg/mL
same,MIC,[18],> 8 µg/mL
same,MIC,[19],> 8 µg/mL
same,MIC,[20],> 8 µg/mL
same,MIC,[21],> 8 µg/mL
same,MIC,[22],> 8 µg/mL
same,MIC,[23]; [48],> 8 µg/mL
same,MIC,[23]; listed as IPM,>8 µg/mL
same,MIC,[24],> 8 µg/mL
same,MIC,[25],> 8 µg/mL
same,MIC,[26],> 8 µg/mL
same,MIC,[27],1 µg/mL
same,MIC,[28],> 8 µg/mL
same,MIC,[29],> 8 µg/mL
same,MIC,[30],4 µg/mL
same,MIC,[31],4 µg/mL
same,MIC,[32],> 8 µg/mL
same,MIC,[33],4 µg/mL
same,MIC,[34],2 µg/mL
same,MIC,[35],> 8 µg/mL
same,MIC,[36],> 8 µg/mL
same,MIC,[37],> 8 µg/mL
same,MIC,[38]; [49],> 8 µg/mL
same,MIC,"[38]; VIM-2, listed as IPM",>8 µg/mL
same,MIC,[39],≤ 0.25 µg/mL
same,MIC,[40],> 8 µg/mL
same,MIC,[41]; [50],8 µg/mL
same,MIC,[42],4 µg/mL
same,MIC,[43],> 8 µg/mL
same,MIC,[44],> 8 µg/mL
"O=C(O)c1cccc(C(=O)O)n1 [DPA, dipicolinic acid]",concentration at which bacteria are sensitive,"[45]; FIG. 9, FIG. 10, FIG. 21 and FIG. 22 (with MEM/CLOX or DOR/CLOX)",180 µg/mL
"O=C(O)CN(CCN(CC(=O)O)CC(=O)O)CC(=O)O [EDTA, ethylenediaminetetraacetic acid]",concentration at which bacteria are sensitive,"[45]; FIG. 3, FIG. 4, FIG. 15 and FIG. 16 (with TEM/CLOX or DOR/CLOX)",250 µg/mL
same,concentration at which bacteria are sensitive,[45]; FIG. 5 and FIG. 6 (with TEM/CLOX),280 µg/mL
C[C@@H](O)[C@H]1C(=O)N2C(C(=O)O)=C(S[C@@H]3CN[C@H](C(=O)N(C)C)C3)[C@H](C)[C@H]12 [Meropenem],MIC,[3],> 8 µg/mL
same,MIC,[4]; listed as MEM,>8 µg/mL
same,MIC,[4]; [46],> 8 µg/mL
same,MIC,[5],> 8 µg/mL
same,MIC,[6],0.25 µg/mL
same,MIC,[7],0.5 µg/mL
same,MIC,[8],> 8 µg/mL
same,MIC,[9],8 µg/mL
same,MIC,[10]; [47],2 µg/mL
same,MIC,[11],> 8 µg/mL
same,MIC,[12],> 8 µg/mL
same,MIC,[13],2 µg/mL
same,MIC,[14],> 8 µg/mL
same,MIC,[15],> 8 µg/mL
same,MIC,[16],≤ 0.125 µg/mL
same,MIC,[17],> 8 µg/mL
same,MIC,[18],> 8 µg/mL
same,MIC,[19],> 8 µg/mL
same,MIC,[20],> 8 µg/mL
same,MIC,[21],> 8 µg/mL
same,MIC,[22],> 8 µg/mL
same,MIC,[23]; [48],4 µg/mL
same,MIC,[24],> 8 µg/mL
same,MIC,[25],8 µg/mL
same,MIC,[26],> 8 µg/mL
same,MIC,[27],4 µg/mL
same,MIC,[28],> 8 µg/mL
same,MIC,[29],> 8 µg/mL
same,MIC,[30],0.5 µg/mL
same,MIC,[31],4 µg/mL
same,MIC,[32],> 8 µg/mL
same,MIC,[33],8 µg/mL
same,MIC,[34],0.25 µg/mL
same,MIC,[35],> 8 µg/mL
same,MIC,[36],> 8 µg/mL
same,MIC,[37],> 8 µg/mL
same,MIC,[38]; [49],4 µg/mL
same,MIC,[39],0.5 µg/mL
same,MIC,[40],> 8 µg/mL
same,MIC,"[41]; IMP-27, listed as MEM",>8 µg/mL
same,MIC,[41]; [50],> 8 µg/mL
same,MIC,[42],1 µg/mL
same,MIC,[43],> 8 µg/mL
same,MIC,[44],> 8 µg/mL
